Laboratory results as given in patent EP4201929A1, “QUINOXALINE THIOREDOXIN REDUCTASE INHIBITORS” (geneXplain GmbH, priority 2021, dated 2023).
pIC50: −log10 of the molar value.

How the values were obtained:
Format in all cases: cell-based
[1] = tested on: BT20; assay: Growth suppression, cancer cell line panel (resazurin); settings: BT20 breast, 48 hours
Description: (§1) Breast, colon, ovarian, cervical, liver and lung carcinoma cell lines were grown in DMEM supplemented with 10% FBS, and antibiotics were cultured at 37 °C and 5% CO2. Osteosarcoma, melanoma, lymphoma, neuroblastoma and leukemia cell lines were cultured in RPMI 1640 with 10% FBS and antibiotics. An oxygen concentration of 0.3% was obtained by flushing a sealed box containing the cells with premixed gas composed of 95% nitrogen (N2) and 5% CO2 (AGA AB, Sweden). To obtain an oxygen concentration of 0.05%, the cells were flushed with the premixed gas continuously throughout the experiment.
(§2) Cells were grown in 96-well plates at a density of 3000 cells per well with or without doxycycline and treated with compounds. After 48 hours of incubation the proliferative cell reagent resazurin (Thermo Fisher Scientific) was added to the cells. The degree of resazurin reduction, which reflects cell viability, was measured by microplate reader by monitoring the absorbance at 570 nm and 600 nm, according to the manufacturer.
(§3) Growth suppression by the soluble compound 1d*HCl in a panel of 27 cancer cell lines. The panel of cancer cell lines, including carcinomas of breast (MDA-MB231, SKBR3, T47D, MCF7; BT549, BT20, MDA-MB468), colon, (SW480, RKO, HT29, HCT116) ovarian (OVCAR3, OVCAR4, OVCAR8), cervical (SW756, C33A), liver (HEPG2) and lung (H23), osteosarcoma (SJSA and U2OS), melanoma (ME180), lymphoma (Raji, HDLM2), neuroblastoma (SKNAS, IMR32) and leukemia (NB4, K562) were treated with increasing concentrations of 1d*HCl: 0.4; 0.8; 1.6; 3.2; 6.4; 12.8; 25.6 µM in 96-well plates. After 48 hours of incubation the proliferative cell reagent resazurin was added to the cells. The degree of resazurin reduction, which reflects cell viability, was measured by microplate reader by monitoring the absorbance at 570 nm and 600 nm, according to the manufacturer, and the IC50 and AUC (area under curve) were determined (Table 2). As could be seen in Table 2, 1d*HCl suppressed the growth of cancer cell lines of a different origin, including carcinomas, osteosarcomas, melanoma, lymphoma, leukemia and neuroblastoma. These findings open up a possibility of the application of the present invention in anti-cancer therapy in a broad range of tumor types. Table 2: a) Breast cancer

[2] = tested on: C33A; assay: as above; settings: C33A cervical, 48 hours
Description: as §1, §2, §3

[3] = target: T1, TrxRl covalent dimers (Homo sapiens, UniProt Q16881); assay: Detection of TrxR dimers by Western blot; settings: HCT116 and MCF7 cells, 5 µM, detected as soon as 2h after treatment
T1 construct: endogenous in cells; host or cells: MCF7 (A37, A39); HCT116 (A39)
T1 sequence (Q16881 151-649): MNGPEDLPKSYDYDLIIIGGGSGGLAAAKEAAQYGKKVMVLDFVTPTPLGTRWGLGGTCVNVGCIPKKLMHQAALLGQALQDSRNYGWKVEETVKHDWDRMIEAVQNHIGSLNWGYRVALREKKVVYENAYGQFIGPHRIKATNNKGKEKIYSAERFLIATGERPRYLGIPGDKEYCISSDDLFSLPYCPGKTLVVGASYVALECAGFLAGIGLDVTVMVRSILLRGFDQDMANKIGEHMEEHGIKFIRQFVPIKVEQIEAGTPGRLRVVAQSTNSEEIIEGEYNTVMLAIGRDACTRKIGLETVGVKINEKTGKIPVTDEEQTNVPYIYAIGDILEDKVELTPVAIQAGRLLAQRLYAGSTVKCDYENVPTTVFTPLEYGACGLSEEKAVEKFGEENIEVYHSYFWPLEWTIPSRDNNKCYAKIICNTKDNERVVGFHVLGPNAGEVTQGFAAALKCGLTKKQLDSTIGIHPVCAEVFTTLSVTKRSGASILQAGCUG
Description: The extraction of total cell lysates and western blot were performed according to standard procedure. The antibodies used for immunoblotting were: p53 (sc-126, Santa Cruz Biotechnology), γH2AX (#07-164, Millipore), TrxRl 19A1 (AbFrontier). Anti-β-actin monoclonal antibody (Millipore) was used as loading control. The horseradish peroxidase-coupled secondary antibodies (Jackson ImmunoResearch) and SuperSignal™ West Dura Extended Duration Substrate detection system (Thermo Fischer Scientific), and images were visualized using ChemiDoc Imaging System (Bio-Rad).
MCF7 or HCT116 cells were treated in culture with 5 or 10 µM of 1d*HCl (Example 4) in complete medium for 2h or 6h. For each case, duplicate drug treated samples were produced plus duplicate control treatment samples using equal volumes of the drug vehicle dimethyl sulfoxide. Detached cells from each biological replicate were washed, suspended in PBS containing protease inhibitors and cells lysed through freeze thaw cycles in liquid N2, according to the reference protocol. Soluble fraction was separated from precipitated protein by ultracentrifugation at 100000 g for 30 minutes at 4°C and TrxRl dimer formation was analysed using Western blot as described above. […]

[4] = tested on: HCT116 p53-/- and A375p53-/- cells; assay: Growth suppression in wild type p53 versus p53-negative isogenic cells; settings: HCT116 vs HCT116 p53-/-; A375 vs A375p53-/-
Description: as §2
Since p53 is a major inducer of apoptosis, including ROS-induced apoptosis, we tested whether p53 plays a role in growth suppression by 1d*HCl. We used wild type p53 HCT116 cells and their isogenic p53-negative cell line HCT116 p53-/-, as well as a pair of wild type p53 A375 and p53-negative A375p53-/- melanoma cells, generated using CRISPR-Cas9, as described previously [Zhou X, Singh M, Sanz Santos G, Guerlavais V, Carvajal LA, Aivado M, Zhan Y, Oliveira MMS, Westerberg LS, Annis DA, Johnsen JI, Selivanova G. Pharmacologic activation of p53 triggers viral mimicry response thereby abolishing tumor immune evasion and promoting anti-tumor immunity Cancer Discov. ([…]), 11(12), 3090-3105]. […] This allowed us to conclude that the tumor suppression is p53 -independent. […]

[5] = target: GR (Homo sapiens, UniProt P00390); assay: GR activity in cells
Chain of GR (P00390 44-522): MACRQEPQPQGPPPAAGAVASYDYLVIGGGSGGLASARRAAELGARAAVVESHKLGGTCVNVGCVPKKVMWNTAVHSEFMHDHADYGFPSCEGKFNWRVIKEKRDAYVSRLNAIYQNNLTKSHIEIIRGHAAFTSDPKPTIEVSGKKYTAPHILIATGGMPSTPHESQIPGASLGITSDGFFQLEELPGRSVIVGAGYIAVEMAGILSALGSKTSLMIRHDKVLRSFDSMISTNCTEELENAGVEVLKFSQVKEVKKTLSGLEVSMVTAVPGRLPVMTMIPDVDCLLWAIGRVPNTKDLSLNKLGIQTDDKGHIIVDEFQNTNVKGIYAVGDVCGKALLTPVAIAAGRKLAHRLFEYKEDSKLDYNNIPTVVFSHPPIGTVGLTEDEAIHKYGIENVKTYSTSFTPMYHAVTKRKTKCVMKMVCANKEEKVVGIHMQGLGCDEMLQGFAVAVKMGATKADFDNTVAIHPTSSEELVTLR
Source text: Having established that 1d*HCl inhibits TrxR1activity in vitro, it was important to confirm that 1d*HCl targets TrxRl in living cells. Therefore, we tested whether 1d*HCl is able to inhibit the enzymatic activity of TrxRl in MCF7 breast cancer cells. […] In contrast, GR activity was not inhibited by 1d*HCl in cells, which is in line with the in vitro results. Thus, we conclude that 1d*HCl selectively targets TrxRl in cancer cells and inhibits its activity, leading to the induction of ROS and oxidative stress.

For `Cl.N#Cc1c(-c2cccnc2)[n+]([O-])c2cc(F)c(N3CCOCC3)cc2[n+]1[O-]` [1d*HCl, 6-Fluoro-7-(morpholin-4-yl)-3-(pyridin-3-yl)quinoxaline-2-carbonitrile-1,4-dioxide hydrochloride], the AUC ([1]; area under curve, 0.4-25.6 µM) was 9,64, the pIC50 ([1]; Homo sapiens, BT-20, resazurin) was 5.23 and the IC50 ([2]; resazurin) was “variable”. The AUC ([2]; area under curve, 0.4-25.6 µM) was 21, the “formation of TrxRl covalent dimers (130 kDa band)” value [3] was “induces the formation of TrxRl covalent dimers” and the “growth suppression in the absence of p53” value [4] was “not affected in the absence of p53”. The “GR activity in cells” value [5] was “not inhibited”.
